Test results reported in publication PMC13245809 (Nature chemistry, 2026).

How the values were obtained:
FABLE [1] = test: fluorescence titration, single-site binding model; design: species or system synthetic construct
FABLE [2] = test: fluorescence titration, global single-site fit; type: binding, synthetic construct

SMILES | Kd (FABLE [1]) [µM] | Kd (FABLE [2]) [µM]
CCN(CC)c1ccc2c(C(F)(F)F)cc(=O)oc2c1 [Cou481] | 5.8 ± 0.7 | 
CN(C)c1ccc2c(C(F)(F)F)cc(=O)oc2c1 [Cou485, 7-(dimethylamino)-4-(trifluoromethyl)coumarin] |  | 27.8 ± 1
O=c1cc(C(F)(F)F)c2cc3c4c(c2o1)CCCN4CCC3 [Cou540a] | 2 ± 0.1 | 
